Source: ChEMBL document CHEMBL3885861, “Open TG-GATES”

Species: Rattus norvegicus
Assay: Open TG-GATES - Regimen: Single
Assay type: toxicity, organism-based, Sprague-Dawley
Set-up: regimen Single, gender Male, age 6 weeks
Details: in vivo, po, 0 mg/kg, route gavage, dose level Control; for APTT / Bas / Eos / Fbg / Hb / Ht / Lym / MCH / MCHC / MCV / Mono / Neu / PT / Plat / RBC / Ret / WBC: tissue Blood; for KIDNEY_L / KIDNEY_R / KIDNEY_TOTAL: tissue Kidney; for LIVER: tissue Liver; for A/G / ALP / ALT / AST / BUN / CRE / Ca / Cl / DBIL / GLC / IP / K / LDH / Na / PL / RALB / TBIL / TC / TG / TP / gamma-GTP: tissue Plasma

SMILES: O=C(O)COc1nn(Cc2ccccc2)c2ccccc12 [BENDAZAC]
- TERMINAL_BW (3 h): 211 g
- APTT (3 h): 17.2 s
- Bas (3 h): 0%
- Eos (3 h): 0.8%
- Fbg (3 h): 208.8 mg/dL
- Hb (3 h): 13.6 g/dL
- Ht (3 h): 40.7%
- Lym (3 h): 77.2%
- MCH (3 h): 21.7 pg
- MCHC (3 h): 33.3%
- MCV (3 h): 65.1 fL
- Mono (3 h): 10.4%
- Neu (3 h): 12%
- PT (3 h): 11.2 s
- Plat (3 h): 119 x10_4/uL
- RBC (3 h): 625 x10_4/ul
- Ret (3 h): 8.9%
- WBC (3 h): 108.6 x10_2/uL
- KIDNEY_L (3 h): 0.9 g
- KIDNEY_R (3 h): 1 g
- KIDNEY_TOTAL (3 h): 1.9 g
- LIVER (3 h): 10 g
- A/G (3 h): 2.2
- ALP (3 h): 955 IU/L
- ALT (3 h): 37.2 IU/L
- AST (3 h): 65.8 IU/L
- BUN (3 h): 12.4 mg/dL
- CRE (3 h): 0.5 mg/dL
- Ca (3 h): 10.9 mg/dL
- Cl (3 h): 103.8 meq/L
- DBIL (3 h): 0.008 mg/dL
- GLC (3 h): 199.4 mg/dL
- IP (3 h): 8.2 mg/dL
- K (3 h): 4.5 meq/L
- LDH (3 h): 89.4 IU/L
- Na (3 h): 139.8 meq/L
- PL (3 h): 145.4 mg/dL
- RALB (3 h): 3.7 g/dL
- TBIL (3 h): 0.3 mg/dL
- TC (3 h): 81 mg/dL
- TG (3 h): 67 mg/dL
- TP (3 h): 5.4 g/dL
- gamma-GTP (3 h): 1 IU/L
- TERMINAL_BW (6 h): 209.6 g
- APTT (6 h): 17.5 s
- Bas (6 h): 0%
- Eos (6 h): 0.8%
- Fbg (6 h): 200.2 mg/dL
- Hb (6 h): 13.9 g/dL
- Ht (6 h): 41.5%
- Lym (6 h): 77.2%
- MCH (6 h): 21.6 pg
- MCHC (6 h): 33.4%
- MCV (6 h): 64.7 fL
- Mono (6 h): 8.4%
- Neu (6 h): 13.4%
- PT (6 h): 11.7 s
- Plat (6 h): 123 x10_4/uL
- RBC (6 h): 642.4 x10_4/ul
- Ret (6 h): 10%
- WBC (6 h): 96.6 x10_2/uL
- KIDNEY_L (6 h): 1 g
- KIDNEY_R (6 h): 1 g
- KIDNEY_TOTAL (6 h): 2 g
- LIVER (6 h): 9.4 g
- A/G (6 h): 2.2
- ALP (6 h): 801.4 IU/L
- ALT (6 h): 33.2 IU/L
- AST (6 h): 59.8 IU/L
- BUN (6 h): 11.6 mg/dL
- CRE (6 h): 0.5 mg/dL
- Ca (6 h): 10.7 mg/dL
- Cl (6 h): 105.6 meq/L
- DBIL (6 h): 0.054 mg/dL
- GLC (6 h): 186.8 mg/dL
- IP (6 h): 9.6 mg/dL
- K (6 h): 4.8 meq/L
- LDH (6 h): 75.2 IU/L
- Na (6 h): 140.8 meq/L
- PL (6 h): 135.6 mg/dL
- RALB (6 h): 3.6 g/dL
- TBIL (6 h): 0.5 mg/dL
- TC (6 h): 72.6 mg/dL
- TG (6 h): 75.8 mg/dL
- TP (6 h): 5.2 g/dL
- gamma-GTP (6 h): 2 IU/L
- TERMINAL_BW (9 h): 211.9 g
- APTT (9 h): 16.6 s
- Bas (9 h): 0%
- Eos (9 h): 1.2%
- Fbg (9 h): 206.4 mg/dL
- Hb (9 h): 13.5 g/dL
- Ht (9 h): 40.3%
- Lym (9 h): 76.8%
- MCH (9 h): 22 pg
- MCHC (9 h): 33.5%
- MCV (9 h): 65.8 fL
- Mono (9 h): 9.6%
- Neu (9 h): 12.8%
- PT (9 h): 11.8 s
- Plat (9 h): 107.3 x10_4/uL
- RBC (9 h): 613.4 x10_4/ul
- Ret (9 h): 10.7%
- WBC (9 h): 98.1 x10_2/uL
- KIDNEY_L (9 h): 1 g
- KIDNEY_R (9 h): 1 g
- KIDNEY_TOTAL (9 h): 2 g
- LIVER (9 h): 9 g
- A/G (9 h): 2.1
- ALP (9 h): 700.2 IU/L
- ALT (9 h): 30 IU/L
- AST (9 h): 64.4 IU/L
- BUN (9 h): 10.8 mg/dL
- CRE (9 h): 0.6 mg/dL
- Ca (9 h): 10.6 mg/dL
- Cl (9 h): 106 meq/L
- DBIL (9 h): 0.056 mg/dL
- GLC (9 h): 197.2 mg/dL
- IP (9 h): 9.9 mg/dL
- K (9 h): 4.6 meq/L
- LDH (9 h): 75 IU/L
- Na (9 h): 143 meq/L
- PL (9 h): 134.4 mg/dL
- RALB (9 h): 3.7 g/dL
- TBIL (9 h): 0.4 mg/dL
- TC (9 h): 73.4 mg/dL
- TG (9 h): 44.2 mg/dL
- TP (9 h): 5.5 g/dL
- gamma-GTP (9 h): 1.8 IU/L
- TERMINAL_BW (24 h): 229.7 g
- APTT (24 h): 17 s
- Bas (24 h): 0%
- Eos (24 h): 1%
- Fbg (24 h): 210.8 mg/dL
- Hb (24 h): 13.5 g/dL
- Ht (24 h): 39.7%
- Lym (24 h): 77.2%
- MCH (24 h): 22.2 pg
- MCHC (24 h): 34%
- MCV (24 h): 65.2 fL
- Mono (24 h): 9.6%
- Neu (24 h): 12.4%
- PT (24 h): 12 s
- Plat (24 h): 125.1 x10_4/uL
- RBC (24 h): 609.6 x10_4/ul
- Ret (24 h): 9.8%
- WBC (24 h): 103.2 x10_2/uL
- KIDNEY_L (24 h): 1 g
- KIDNEY_R (24 h): 1 g
- KIDNEY_TOTAL (24 h): 2 g
- LIVER (24 h): 10.7 g
- A/G (24 h): 2
- ALP (24 h): 978 IU/L
- ALT (24 h): 39.8 IU/L
- AST (24 h): 67.2 IU/L
- BUN (24 h): 17.8 mg/dL
- CRE (24 h): 0.6 mg/dL
- Ca (24 h): 11 mg/dL
- Cl (24 h): 104.6 meq/L
- DBIL (24 h): 0.006 mg/dL
- GLC (24 h): 194.2 mg/dL
- IP (24 h): 7.9 mg/dL
- K (24 h): 4.8 meq/L
- LDH (24 h): 80.6 IU/L
- Na (24 h): 140.4 meq/L
- PL (24 h): 144.6 mg/dL
- RALB (24 h): 3.7 g/dL
- TBIL (24 h): 0.3 mg/dL
- TC (24 h): 77.2 mg/dL
- TG (24 h): 102 mg/dL
- TP (24 h): 5.6 g/dL
- gamma-GTP (24 h): 1.2 IU/L
